The source of these data is patent publication US20050009845A1, “Thienopyrimidine compounds as protein tyrosine kinase inhibitors” (priority 2001, published 2005).

SMILES strings stand for the structures. Counter-ions that a name gives are not always drawn.

Data set [1] has as its target T1, ErbB-2 (Homo sapiens, UniProt P04626).
T1 construct: made in house
Description: ErbB-2 substrate phosphorylation enzyme assay (scintillation proximity). It counts as biochemical. The note with it: ErbB-2, pIC50 classes. How it is done:
Compounds of the present invention were tested for EGFR, ErbB-2, and ErbB-4 protein tyrosine kinase inhibitory activity in substrate phosphorylation assays using enzymes purified from a baculovirus expression system. Reagent production and assay methodology were conducted essentially as described (Brignola, P.S., et al, (2002) J. Biol. Chem. v. 277 in press).
The method measures the ability of the isolated enzyme to catalyse the transfer of the γ-phosphate from ATP onto tyrosine residues in a biotinylated synthetic peptide (biotin-Ahx-RAHEEIYHFFFAKKK-amide). Reactions were performed in 96-well polystyrene round-bottom plates in a final volume of 45 μL. Reaction mixtures contained 50 mM MOPS (pH 7.5), 2 mM MnCl2, 10 μM ATP, 0.125 μCi [γ-^33P] ATP per reaction, 2 μM peptide substrate, and I mM dithiothreitol. Reactions were initiated by adding 1 pmol (20 nM) per reaction of the indicated enzyme. The reaction was allowed to proceed for 15 minutes, terminated and quantified using a scintillation proximity assay procedure as described in McDonald, O. B., Antonsson, B., Arkinstal, S., Marshall, C. J., and Wood, E. R. (1999) Analytical Biochemistry, 268, 318-329.
Compounds under analysis were dissolved in Me2SO to 0.5 mM and serially diluted 1 to 3 with Me2SO through eleven columns of a 96 well plate. 1 μL of each concentration was transferred to the corresponding well of the assay plate. This creates a final compound concentration range from 0.00019 to 11.1 μM.
The data for dose responses were plotted as % Control calculated with the data reduction formula 100*(U1−C2)/(C1−C2) versus concentration of compound and fitted to the curve described by: y=((Vmax*x)/(K+x)) where Vmax is the upper asymptote and K is the IC50. Cellular assays: Methylene Blue Growth Inhibition Assay
A general note: In a scintillation proximity assay essentially only radioactivity close to the scintillant gives light.

For data set [2], the system named is BT474 tumor cell line. Briefly: Methylene blue growth inhibition assay, BT474. The note with it: Homo sapiens, BT-474, 72 h; BT474, 3 days, IC50 classes. Format: cell-based. How it is done:
Human breast (BT474), head and neck (HN5) and gastric tumor (N87) cell lines and human foreskin Fibroblasts (HFF) were cultured in low glucose DMEM (Life Technologies 12320-032) containing 10% fetal bovine serum (FBS) at 37° C. in a humidified 10% CO2, 90% air incubator. The SV40 transformed human mammary epithelial cell line HB4a was transfected with either human H-ras cDNA (HB4a r4.2) or the human c-ErbB2 cDNA (HB4a c5.2). The HB4a clones were cultured in RPMI containing 10% FBS, insulin (5 μg/ml), hydrocortisone (5 μg/ml), supplemented with the selection agent hygromycin B (50μg/ml). Cells were harvested using trypsin/EDTA, counted using a haemocytometer, and plated in […] of the appropriate media, at the following densities, in a 96-well tissue culture plate (Falcon 3075): BT474 10,000 cells/well, HN5 3,000 cells/well, N87 10,000 cells/well, HB4a c5.2 3,000 cells/well, HB4a r4.2 3,000 cells/well, HFF 2500 cells/well. The next day, compounds were diluted in DMEM containing […] gentamicin, at twice the final required concentration, from 10 mM stock solutions in DMSO. […] of these dilutions were added to the […] of media currently on the cell plates. Medium containing 0.6% DMSO was added to control wells. Compounds diluted in DMEM were added to all cell lines, including the HB4a r4.2 and HB4a c5.2 cell lines. The final concentration of DMSO in all wells was 0.3%. Cells were incubated at 37° C., 10% CO2 for 3 days. Medium was removed by aspiration. Cell biomass was estimated by staining cells with 100 μl per well methylene blue (Sigma M9140, 0.5% in 50:50 ethanol:water), and incubation at room temperature for at least 30 minutes. Stain was removed, and the plates rinsed under a gentle stream of water, and air-dried. To release stain from the cells 100 μl of solubilization solution was added (1% N-lauroyl sarcosine, Sodium salt, Sigma L5125, in PBS), and plates were shaken gently for about 30 minutes. Optical density at 620 nm was measured on a microplate reader. Percent inhibition of cell growth was calculated relative to vehicle treated control wells. Concentration of compound that inhibits 50% of cell growth (IC50) was interpolated using nonlinear regression (Levenberg-Marquardt) and the equation, y=Vmax*(1−(x/(K+x)))+Y2, where “K” was equal to the IC50.
Table I illustrates the inhibitory activity of compounds of the present invention as IC50 values in μM against and the BT474 tumor cell line. Using HFF as a representative, human, normal cell line, values for cytotoxicity are supplied as IC50 values in micromolar.

T1 sequence (P04626 691-1255 limits assumed): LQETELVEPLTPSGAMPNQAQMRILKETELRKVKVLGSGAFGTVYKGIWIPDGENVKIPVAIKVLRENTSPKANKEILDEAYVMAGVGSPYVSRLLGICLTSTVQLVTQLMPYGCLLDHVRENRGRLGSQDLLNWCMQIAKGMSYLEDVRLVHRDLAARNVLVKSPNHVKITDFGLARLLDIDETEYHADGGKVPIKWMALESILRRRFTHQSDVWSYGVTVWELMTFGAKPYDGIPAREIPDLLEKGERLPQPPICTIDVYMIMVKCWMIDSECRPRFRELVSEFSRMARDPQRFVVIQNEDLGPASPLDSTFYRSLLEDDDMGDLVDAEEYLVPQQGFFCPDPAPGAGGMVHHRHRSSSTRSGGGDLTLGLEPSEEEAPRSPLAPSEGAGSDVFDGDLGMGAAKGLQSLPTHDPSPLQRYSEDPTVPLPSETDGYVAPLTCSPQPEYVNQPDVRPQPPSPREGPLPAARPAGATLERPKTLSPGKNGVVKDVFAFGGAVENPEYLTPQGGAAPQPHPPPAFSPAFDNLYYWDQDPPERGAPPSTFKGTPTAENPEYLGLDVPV

One may read the IC50 as the midpoint of a concentration-inhibition curve. Low readings indicate greater potency in that assay, high ones weaker potency in that assay. As a reminder, the melting point is the temperature of the solid-liquid transition. As to `Fc1cccc(COc2ccc(Nc3ncnc4sc(C#Cc5ncccn5)cc34)cc2Cl)c1` [N-{3-chloro-4-[(3-fluorobenzyl)oxy]phenyl)-6-(pyrimidin-2-ylethynyl)thieno[2,3-d]pyrimidin-4-amine], the melting point turned out to be 225 °C. Further, the IC50 in data set [1] was in the range of 31.6 to 100 nM. Further, the IC50 in data set [2] lay within 1500 to 5000 nM.
For the compound `Fc1cccc(COc2ccc(Nc3ncnc4sc(C#Cc5nccs5)cc34)cc2Cl)c1` [Example 101, N-{3-chloro-4-[(3-fluorobenzyl)oxy]phenyl}-6-(1,3-thiazol-2-ylethynyl)thieno[2,3-d]pyrimidin-4-amine], the melting point was 204 °C.
With `CS(=O)(=O)CCNCC#Cc1cc2ncnc(Nc3ccc(OCc4cccc(F)c4)c(Cl)c3)c2s1` [N-{3-Chloro-4-[(3-fluorobenzyl)oxy]phenyl}-6-(3-{[2-(methylsulfonyl)ethyl]amino}prop-1-ynyl)thieno[3,2-d]pyrimidin-4-amine hydrochloride], the values for the IC50 in data set [1] and in data set [2] were less than 31.6 nM and less than 1500 nM, respectively.
The matching figures for `O=C(Cc1ccc(Cl)c(Cl)c1)NCC#Cc1cc2ncnc(Nc3ccc(OCc4cccc(F)c4)c(Cl)c3)c2s1` [N-{3-[4-({3-chloro-4-[(3-fluorobenzyl)oxy]phenyl}amino)thieno[3,2-d]pyrimidin-6-yl]prop-2-ynyl}-2-(3,4-dichlorophenyl)acetamide]: greater than 100 nM and greater than 5000 nM.
As to `Fc1cccc(COc2ccc(Nc3ncnc4cc(C#Cc5ncccn5)sc34)cc2Cl)c1` [Example 77, N-{3-chloro-4-[(3-fluorobenzyl)oxy]phenyl}-6-(pyrimidin-2-ylethynyl)thieno[3,2-d]pyrimidin-4-amine], the melting point was in the range of 236 to 240 °C.
On to `O=C(NCC#Cc1cc2ncnc(Nc3ccc(OCc4cccc(F)c4)c(Cl)c3)c2s1)c1csc(-c2ccncc2)n1` [N-{3-[4-({3-chloro-4-[(3-fluorobenzyl)oxy]phenyl}amino)thieno[3,2-d]pyrimidin-6-yl]prop-2-ynyl}-2-pyridin-4-yl-1,3-thiazole-4-carboxamide], for which the IC50 in data set [1] is 31.6 to 100 nM; in data set [2], 1500 to 5000 nM.
The matching figures for `CN(C)CCNC(=O)NCC#Cc1cc2c(Nc3ccc(OCc4cccc(F)c4)c(Cl)c3)ncnc2s1` [N-{3-[4-({3-chloro-4-[(3-fluorobenzyl)oxy]phenyl}amino)thieno[2,3-d]pyrimidin-6-yl]prop-2-ynyl)N′-[2-(dimethylamino)ethyl]urea]: less than 31.6 nM and less than 1500 nM.
For `O=C(NCC#Cc1cc2ncnc(Nc3ccc(OCc4cccc(F)c4)c(Cl)c3)c2s1)c1c(Cl)cccc1Cl` [2,6-dichloro-N-{3-[4-({3-chloro-4-[(3-fluorobenzyl)oxy]phenyl}amino)thieno[3,2-d]pyrimidin-6-yl]prop-2-ynyl}benzamide], the 50% inhibitory concentration (IC50) in data set [1] was in the range of 31.6 to 100 nM; in data set [2], 1500 to 5000 nM.
As for `CS(=O)(=O)CCNC(=O)NCC#Cc1cc2c(Nc3ccc(OCc4cccc(F)c4)c(Cl)c3)ncnc2s1` [N-{3-[4-({3-chloro-4-[(3-fluorobenzyl)oxy]phenyl}amino)thieno[2,3-d]pyrimidin-6-yl]prop-2-ynyl}-N′-[2-(methylsulfonyl)ethyl]urea], the IC50 in data set [1] is less than 31.6 nM; in data set [2], less than 1500 nM.
The matching figures for `O=C(NCC#Cc1cc2ncnc(Nc3ccc(OCc4cccc(F)c4)c(Cl)c3)c2s1)c1ccc2[nH]ccc2c1` [N-{3-[4-({3-chloro-4-[(3-fluorobenzyl)oxy]phenyl}amino)thieno[3,2-d]pyrimidin-6-yl]prop-2-ynyl}-1H-indole-5-carboxamide]: 31.6 to 100 nM and 1500 to 5000 nM.
On to `CN1CCN(CC(=O)NCC#Cc2cc3ncnc(Nc4ccc(OCc5cccc(F)c5)c(Cl)c4)c3s2)CC1` [N-{3-[4-({3-Chloro-4-[(3-fluorobenzyl)oxy]phenyl}amino)thieno[3,2-d]pyrimidin-6-yl]prop-2-ynyl}-2-(4-methylpiperazin-1-yl)acetamide], for which the results for the half-maximal inhibitory concentration (IC50) in data set [1] and in data set [2] were less than 31.6 nM and less than 1500 nM, respectively.
The matching figures for `O=C(CCc1ccc(F)cc1)NCC#Cc1cc2ncnc(Nc3ccc(OCc4cccc(F)c4)c(Cl)c3)c2s1` [N-{3-[4-({3-chloro-4-[(3-fluorobenzyl)oxy]phenyl}amino)thieno[3,2-d]pyrimidin-6-yl]prop-2-ynyl}-3-(4-fluorophenyl)propanamide]: 31.6 to 100 nM and 1500 to 5000 nM.
The compound `Fc1cccc(COc2ccc(Nc3ncnc4sc(C#Cc5ccccn5)cc34)cc2Cl)c1` [Example 99, N-{3-chloro-4-[(3-fluorobenzyl)oxy]phenyl}-6-(pyridin-2-ylethynyl)thieno[2,3-d]pyrimidin-4-amine] showed a melting point of 180 °C.
Regarding `CC(C)CN(CC#Cc1cc2ncnc(Nc3ccc(OCc4cccc(F)c4)c(Cl)c3)c2s1)CC(C)C` [N-{3-chloro-4-[(3-fluorobenzyl)oxy]phenyl}-6-[3-(diisobutylamino)prop-1-ynyl]thieno[3,2-d]pyrimidin-4-amine], the results for the IC50 in data set [1] and in data set [2] were greater than 100 nM and greater than 5000 nM, respectively.
`Fc1cccc(COc2ccc(Nc3ncnc4cc(C#Cc5ccccn5)sc34)cc2Cl)c1` [Example 78, N-{3-chloro-4-[(3-fluorobenzyl)oxy]phenyl}-6-(pyridin-2-yiethynyl)thieno[3,2-d]pyrimidin-4-amine] displayed a melting point of 242 °C.
